Results as given in patent US9260534B2, “Site-directed PEG-modified exendin-4 analogs and uses thereof” (priority 2010, dated 2016).

Tested on: GLP-1 receptor
Assay: Evaluation of agonistic activity on GLP-1 receptor (CRE-luciferase reporter in HEK293 cells)
Format: cell-based
Conditions: HEK293 cells stably expressing CRE-luciferase reporter system; cellular level
Source text: GLP-1 receptor is a Gs-coupled GPCR. CRE-luciferase reporter system was stably expressed in human embryonic kidney epithelial cell line HEK293 used for evaluation. Therefore, once the receptor was activated, the enhancement of intracellular concentration of the second messenger cAMP through Gs signal pathway would initiate the expression of the luciferase gene in the reporter system. The ability of the test compounds to stimulate and activate GLP-1 receptor was reflected by the detected expression level of the luciferase reporter gene.

## [Cys^21(mPEG5000-MAL)]Exendin-4 [Compound 1]
  EC50: 22.5 nM
